# ChEMBL document CHEMBL1833893, “Synthesis and anticonvulsant activity of new 1-[2-oxo-2-(4-phenylpiperazin-1-yl)ethyl]pyrrolidine-2,5-diones” (Bioorg Med Chem Lett, 2011)
# Calls of active or inactive are those of the source. No cut-off for these calls is given here.
# Legend:
# Mus musculus [1] = assay: Anticonvulsant activity in ip dosed albino CF1 mouse assessed as protection against maximal electroshock-induced seizures after 0.5 hrs; format: functional; settings: read-out: MED
# Mus musculus [2] = assay: Anticonvulsant activity in albino CF1 mouse assessed as protection against maximal electroshock-induced seizures at 300 mg/kg, ip after 4 hrs; format: functional, organism-based; parameters: dose 300 mg/kg
# Mus musculus [3] = assay: Anticonvulsant activity in albino CF1 mouse assessed as protection against subcutaneous pentylenetetrazole-induced seizures at 300 mg/kg, ip after 0.5 hrs; format: functional, organism-based; parameters: dose 300 mg/kg
# Mus musculus [4] = assay: Anticonvulsant activity in albino CF1 mouse assessed as protection against subcutaneous pentylenetetrazole-induced seizures at 300 mg/kg, ip after 4 hrs; format: functional, organism-based; parameters: dose 300 mg/kg
# Mus musculus [5] = assay: Neurotoxicity in albino CF1 mouse assessed as motor impairment at 300 mg/kg, ip after 0.5 hrs by rotarod test; format: toxicity, organism-based; parameters: dose 300 mg/kg, route intraperitoneal; settings: in vivo
# Mus musculus [6] = assay: Neurotoxicity in albino CF1 mouse assessed as motor impairment at 300 mg/kg, ip after 4 hrs by rotarod test; format: toxicity, organism-based; parameters: dose 300 mg/kg, route intraperitoneal; settings: in vivo
# Mus musculus [7] = assay: Anticonvulsant activity in ip dosed albino CF1 mouse assessed as protection against maximal electroshock-induced seizures after 0.25 hrs; format: functional; settings: read-out: MED
structure (smiles),measurement,setting,value
CC1(C)CC(=O)N(CC(=O)N2CCN(c3ccccc3)CC2)C1=O,minimal effective dose,Mus musculus [1],300 mg/kg
same,Activity,Mus musculus [2],inactive
same,Activity,Mus musculus [3],inactive
same,Activity,Mus musculus [4],inactive
same,Activity,Mus musculus [5],Non-toxic
same,Activity,Mus musculus [6],Non-toxic
same,minimal effective dose,Mus musculus [7],100 mg/kg
